Literature values in paper PMC10552101 (ACS Omega, 2023).

## CNC1CC(c2ccc(Cl)c(Cl)c2)c2ccccc21 (stereo not shown) [LU-19-005, indatraline]
  onset: slow onset
